According to patent US20060142548A1, “Methods of identifying and designing cell surface receptor inhibitors” (priority 2003, published 2006):

Experiments:
αA domain from CD11a = molecular target: T1, αA domain from CD11a (Homo sapiens, UniProt P20701); conditions: binding at the strand-F/α7 interface; reference 84; cited from earlier work
T1 sequence (P20701 156-327 limits assumed): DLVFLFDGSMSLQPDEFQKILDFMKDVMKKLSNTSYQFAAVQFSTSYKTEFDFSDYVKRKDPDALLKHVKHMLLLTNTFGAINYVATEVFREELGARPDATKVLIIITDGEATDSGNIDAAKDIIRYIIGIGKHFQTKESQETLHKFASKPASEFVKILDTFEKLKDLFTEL

physiologic ligand = test: ligand binding to membrane-bound integrin

| fold increase of binding (physiologic ligand) [fold] | Molecule | effect of binding on integrin activation state (αA domain from CD11a) |
| --- | --- | --- |
| – | CC[C@H](C)C(=O)O[C@H]1C[C@@H](C)C=C2C=C[C@H](C)[C@H](CC[C@@H]3C[C@@H](O)CC(=O)O3)[C@H]21 [lovastatin] | locks this integrin in the inactive state |
| 1.5 to 2 | αVβ3 integrin mutant D^126D^127/A^126A^127, membrane-bound (from UniProt P06756 31-1048; P05106 27-788) (receptor) | – |
